From patent US20230381273A1, “NANOPARTICLE IN WHICH ANTIBACTERIAL PEPTIDE IS ENCAPSULATED WITH CHITOSAN AND USE THEREOF” (NATIONAL MARINE BIODIVERSITY INSTITUTE OF KOREA, priority 2022, published 2023)
≈ marks a conversion by molar mass, not a printed value. Peptide text beside a SMILES is read from it.

Columns and labels:
Format in all cases: cell-based
[1] = MTT cell viability assay (cytotoxicity); details: human, HEK293 cells
Experimental: After treating HEK293 cells with octominin-CNP and octominin, MTT (3-(4,5-dimethylthiazol-2-yl)-2,5-diphenyltetrazolium bromide) assay was performed to confirm cell viability.
First, HEK293 cells were cultured using DMEM (Dulbecco's modified Eagle's medium (Sigma-Aldrich, Munich, Germany)) containing 10% (v/v) fetal bovine serum (FBS, (Sigma-Aldrich, Munich, Germany)) and antibiotic-antimycotic (Thermo Fisher Scientific, Waltham, MA, USA). In addition, it was cultured for 24 hours under humidified conditions of 5% CO2 and 37° C. The cells were collected and seeded in a 96-well microplate at a cell density of 2.0×10^5 cells/mL (100 μL/well) and allowed to adhere to the well for 12 hours. The culture medium was then replaced, and they were treated with octominin-CNP (0 to 400 μg/mL) or octominin (0 to 400 μg/mL). After 24 hours of culture, the culture medium was replaced with fresh medium (90 μL), and 10 μL of MTT ([…]) was added to each well, followed by incubation at 37° C. for 4 hours. Then, 50 μL of DMSO was added to the wells in which the culture medium was eradicated to solubilize the resulting formazan dye. Their absorbances were measured at 595 nm using a microplate spectrophotometer (Bio-Rad, Saint Louis, (MO, USA)).

Acinetobacter baumannii = test system: Acinetobacter baumannii
Experimental: (§1) Prior to confirming the antibacterial and antifungal activity of octominin-CNP or free octominin, for the antibacterial activity of octominin against Acinetobacter baumannii (A. baumannii) through preliminary analysis, it was confirmed that minimum inhibitory concentration (MIC) was 5 μg/mL, and the minimum bactericidal concentration (MBC) was 10 μg/mL. In addition, for the antifungal activity against Candida albicans (C. albicans), it was confirmed that the MIC was 50 μg/mL and the minimum fungicidal concentration (MFC) was 200 μg/mL. Accordingly, the antibacterial and antifungal activities of octominin-CNP and free octominin against A. baumannii and C. albicans were confirmed at the MIC and MBC/MFC peptide concentrations.

Candida albicans = test system: Candida albicans
Experimental: as §1

Structure (SMILES): CC[C@H](C)[C@H](NC(=O)[C@H](C)NC(=O)[C@H](CCCCN)NC(=O)CNC(=O)[C@H](C)NC(=O)[C@H](Cc1c[nH]cn1)NC(=O)[C@@H](NC(=O)[C@H](C)NC(=O)CNC(=O)[C@H](CCCNC(=N)N)NC(=O)[C@@H](NC(=O)[C@H](CC(C)C)NC(=O)[C@H](Cc1c[nH]c2ccccc12)NC(=O)CN)[C@@H](C)CC)[C@@H](C)CC)C(=O)N[C@@H](Cc1c[nH]cn1)C(=O)NCC(=O)N[C@@H](CC(C)C)C(=O)N[C@H](C(=O)N[C@@H](Cc1c[nH]cn1)C(=O)N[C@@H](CCCNC(=N)N)C(=O)N[C@@H](CCCNC(=N)N)C(=O)N[C@@H](CCCNC(=N)N)C(=O)N[C@@H](Cc1c[nH]cn1)C(=O)O)[C@@H](C)CC [octominin] (H-GWLIRGAIHAGKAIHGLIHRRRH-OH)
- viability at 24 h, 400 µg/mL [1]: 85.2%
- minimum bactericidal concentration (MBC) (Acinetobacter baumannii): 10 µg/mL (≈ 3.81 µM)
- minimum inhibitory concentration (MIC) (Acinetobacter baumannii): 5 µg/mL (≈ 1.9 µM)
- MIC (Candida albicans): 50 µg/mL (≈ 19 µM)
- minimum fungicidal concentration (MFC) (Candida albicans): 200 µg/mL (≈ 76.2 µM)
